Results as given in ChEMBL document CHEMBL2321689, “Design, synthesis and evaluation of novel heterodimers of donepezil and huperzine fragments as acetylcholinesterase inhibitors” (Bioorg Med Chem, 2013).
Calls of active or inactive are those of the source. The rule behind the calls is not given here.

How the values were obtained:
tissue or blood = conditions: Rattus norvegicus, Sprague-Dawley, Serum
Description: Inhibition of BuChE in Sprague-Dawley rat serum by Ellman's method

Acetylcholinesterase = molecular target: T1, Acetylcholinesterase (Rattus norvegicus, UniProt P37136)
T1 sequence (P37136 whole entry): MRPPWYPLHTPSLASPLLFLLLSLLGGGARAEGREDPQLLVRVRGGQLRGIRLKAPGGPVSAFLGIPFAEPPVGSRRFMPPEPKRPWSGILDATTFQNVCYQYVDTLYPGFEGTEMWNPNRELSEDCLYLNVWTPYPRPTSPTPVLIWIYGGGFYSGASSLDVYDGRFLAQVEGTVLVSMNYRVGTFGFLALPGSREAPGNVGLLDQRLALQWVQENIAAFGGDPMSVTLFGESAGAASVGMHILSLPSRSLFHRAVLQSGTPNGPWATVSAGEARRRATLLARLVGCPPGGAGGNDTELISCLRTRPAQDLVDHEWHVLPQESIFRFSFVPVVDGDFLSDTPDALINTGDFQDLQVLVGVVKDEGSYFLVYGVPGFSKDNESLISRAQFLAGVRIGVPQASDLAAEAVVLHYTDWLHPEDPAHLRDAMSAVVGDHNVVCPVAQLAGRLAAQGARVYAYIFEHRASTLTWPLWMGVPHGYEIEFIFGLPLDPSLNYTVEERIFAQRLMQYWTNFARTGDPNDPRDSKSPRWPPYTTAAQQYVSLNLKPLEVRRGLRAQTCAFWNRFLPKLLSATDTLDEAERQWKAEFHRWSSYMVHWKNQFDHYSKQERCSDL
Description: Inhibition of AChE in Sprague-Dawley rat cortices using acetylthiocholine iodide as substrate by Ellman's method

Rattus norvegicus = species on record: Rattus norvegicus; assay: Inhibition of BuChE in Sprague-Dawley rat serum at 1 mM by Ellman's method; format: cell-free

COc1ccc(C(=O)NCCCN[C@H]2CCCc3[nH]c(=O)ccc32)cc1OC
IC50 (tissue or blood): 139 µM
IC50 (Acetylcholinesterase): 88 µM

COc1cc2c(cc1OC)C(=O)C(CCCCN[C@@H]1CCCc3[nH]c(=O)ccc31)C2 (mixture of isomers)
IC50 (Acetylcholinesterase): 0.53 µM
inhibition (Rattus norvegicus): inactive

COc1cc2c(cc1OC)C(=O)C(CCCCN[C@H]1CCCc3[nH]c(=O)ccc31)C2 (mixture of isomers)
IC50 (Acetylcholinesterase): 0.009 µM
inhibition (Rattus norvegicus): inactive

COc1cc2c(cc1OC)C(=O)C(CCCCCN[C@H]1CCCc3[nH]c(=O)ccc31)C2 (mixture of isomers)
IC50 (Acetylcholinesterase): 0.187 µM
inhibition (Rattus norvegicus): inactive

COc1ccc(C(=O)OCCCCN[C@H]2CCCc3[nH]c(=O)ccc32)cc1OC
IC50 (tissue or blood): 15 µM
IC50 (Acetylcholinesterase): 4.1 µM

COc1ccc(OCCCCCCN[C@H]2CCCc3[nH]c(=O)ccc32)cc1OC
IC50 (tissue or blood): 17.7 µM
IC50 (Acetylcholinesterase): 3.95 µM

COc1cc2c(cc1OC)C(=O)C(CCCN[C@H]1CCCc3[nH]c(=O)ccc31)C2 (mixture of isomers)
IC50 (Acetylcholinesterase): 41 µM
inhibition (Rattus norvegicus): inactive

COc1ccc(C(=O)OCCCCCN[C@H]2CCCc3[nH]c(=O)ccc32)cc1OC
IC50 (tissue or blood): 460 µM
IC50 (Acetylcholinesterase): 7.2 µM

COc1ccc(C(=O)OCCCCCCCN[C@H]2CCCc3[nH]c(=O)ccc32)cc1OC
IC50 (tissue or blood): 194 µM
IC50 (Acetylcholinesterase): 8.2 µM

COc1cc2c(cc1OC)C(=O)C(CCCCCCN[C@H]1CCCc3[nH]c(=O)ccc31)C2 (mixture of isomers)
IC50 (Acetylcholinesterase): 0.037 µM
inhibition (Rattus norvegicus): inactive

COc1ccc(C(=O)NCCCCCN[C@H]2CCCc3[nH]c(=O)ccc32)cc1OC
IC50 (tissue or blood): 33 µM
IC50 (Acetylcholinesterase): 12 µM

COc1ccc(C(=O)OCCCCCCCCCN[C@H]2CCCc3[nH]c(=O)ccc32)cc1OC
IC50 (tissue or blood): 308 µM
IC50 (Acetylcholinesterase): 9.67 µM

COc1ccc(C(=O)OCCCN[C@H]2CCCc3[nH]c(=O)ccc32)cc1OC
IC50 (tissue or blood): 860 µM
IC50 (Acetylcholinesterase): 162 µM

COc1cc2c(cc1OC)C(=O)C(CCCCCCCN[C@H]1CCCc3[nH]c(=O)ccc31)C2 (mixture of isomers)
IC50 (tissue or blood): 413 µM
IC50 (Acetylcholinesterase): 1.86 µM

C/C=C1\[C@H]2C=C(C)C[C@]1(N)c1ccc(=O)[nH]c1C2 [HUPERZINE A]
IC50 (tissue or blood): 74 µM
IC50 (Acetylcholinesterase): 0.065 µM

COc1ccc(OCCCCCN[C@H]2CCCc3[nH]c(=O)ccc32)cc1OC
IC50 (tissue or blood): 42 µM
IC50 (Acetylcholinesterase): 0.59 µM

COc1cc2c(cc1OC)C(=O)C(CCCCCCCCCN[C@H]1CCCc3[nH]c(=O)ccc31)C2 (mixture of isomers)
IC50 (tissue or blood): 678 µM
IC50 (Acetylcholinesterase): 2.6 µM
